pEC50: −log10 of the molar value. Calls of active or inactive are those of the source. The calls are words filed in the database; no cut-off is given here.
Experiments:
[1] = target: T1, DNA polymerase alpha catalytic subunit (Homo sapiens) (UniProt P09884); assay: Substrate activity at human DNA polymerase alpha measured after 4 hrs by electrophoresis based primer extension assay
T1 sequence (whole entry): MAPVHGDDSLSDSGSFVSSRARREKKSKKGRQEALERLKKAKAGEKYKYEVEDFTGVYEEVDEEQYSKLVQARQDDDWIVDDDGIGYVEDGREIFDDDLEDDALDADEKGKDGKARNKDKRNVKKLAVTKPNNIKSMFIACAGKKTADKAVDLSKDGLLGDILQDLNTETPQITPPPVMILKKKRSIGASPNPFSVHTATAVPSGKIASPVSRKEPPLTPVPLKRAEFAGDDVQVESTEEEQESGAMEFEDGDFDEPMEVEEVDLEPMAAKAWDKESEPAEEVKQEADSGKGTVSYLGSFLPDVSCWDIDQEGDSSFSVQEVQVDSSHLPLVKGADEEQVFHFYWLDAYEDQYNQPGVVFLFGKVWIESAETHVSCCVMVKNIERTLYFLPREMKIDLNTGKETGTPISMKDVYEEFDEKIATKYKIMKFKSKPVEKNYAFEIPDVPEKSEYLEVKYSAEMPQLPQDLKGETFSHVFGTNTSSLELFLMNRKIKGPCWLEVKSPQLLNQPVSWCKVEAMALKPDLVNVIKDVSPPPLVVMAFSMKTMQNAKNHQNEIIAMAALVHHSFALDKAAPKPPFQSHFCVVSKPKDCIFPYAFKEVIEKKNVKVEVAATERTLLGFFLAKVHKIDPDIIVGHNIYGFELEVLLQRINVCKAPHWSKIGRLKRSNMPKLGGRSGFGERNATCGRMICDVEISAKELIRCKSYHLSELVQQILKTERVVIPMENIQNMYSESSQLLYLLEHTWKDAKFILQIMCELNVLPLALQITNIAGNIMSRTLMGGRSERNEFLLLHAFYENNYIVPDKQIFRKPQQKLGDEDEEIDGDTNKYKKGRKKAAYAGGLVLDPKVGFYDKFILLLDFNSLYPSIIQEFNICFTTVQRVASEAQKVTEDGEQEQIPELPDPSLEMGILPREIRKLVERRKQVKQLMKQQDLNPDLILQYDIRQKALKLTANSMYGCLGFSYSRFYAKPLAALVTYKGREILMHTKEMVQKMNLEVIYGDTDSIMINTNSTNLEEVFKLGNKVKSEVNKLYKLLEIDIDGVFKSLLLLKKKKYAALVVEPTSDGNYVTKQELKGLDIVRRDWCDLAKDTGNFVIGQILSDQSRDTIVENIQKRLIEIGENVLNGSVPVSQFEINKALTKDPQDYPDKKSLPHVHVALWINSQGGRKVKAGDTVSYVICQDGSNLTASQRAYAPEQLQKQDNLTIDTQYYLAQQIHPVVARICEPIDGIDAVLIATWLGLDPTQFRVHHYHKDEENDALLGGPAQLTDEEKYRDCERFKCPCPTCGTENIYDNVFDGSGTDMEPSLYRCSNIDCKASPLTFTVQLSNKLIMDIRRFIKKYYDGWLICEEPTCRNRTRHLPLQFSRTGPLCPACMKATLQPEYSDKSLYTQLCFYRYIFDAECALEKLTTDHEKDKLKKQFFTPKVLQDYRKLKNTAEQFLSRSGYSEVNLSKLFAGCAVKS

[2] = tested on: Human immunodeficiency virus 2; assay: Potency index, ratio of 3'-deoxy-2',3'-dehydrothymidine EC50 to compound EC50 for antiviral activity against HIV-2 ROD infected in wild-type human CEM/0 cells; assay type: functional
[3] = tested on: Human immunodeficiency virus 2; assay: Antiviral activity against HIV-2 ROD infected in wild-type human CEM/0 cells assessed as inhibition of virus-induced cytopathic effect incubated for 4 to 5 days by light microscopic analysis; assay type: functional, organism-based; details: Human immunodeficiency virus 2, ROD, CCRF-CEM
[4] = Selectivity index, ratio of CC50 for human CEM cells to EC50 for HIV-2 ROD infected in thymidine kinase-deficient human CEM cells; assay type: toxicity; details: read-out: Ratio CC50/EC50
[5] = Cytotoxicity against human CEM cells assessed as reduction in cell viability incubated for 4 to 5 days by light microscopic analysis; assay type: toxicity, cell-based; details: CEM cells (CCRF-CEM), time 4-5 day
[6] = tested on: Human immunodeficiency virus 2; assay: Antiviral activity against HIV-2 ROD infected in thymidine kinase-deficient human CEM cells assessed as inhibition of virus-induced cytopathic effect incubated for 4 to 5 days by light microscopic analysis; assay type: functional, organism-based; details: Human immunodeficiency virus 2, ROD, CCRF-CEM
[7] = target: DNA polymerase beta (Homo sapiens) (UniProt P06746); assay: Substrate activity at human DNA polymerase beta measured after 4 hrs by electrophoresis based primer extension assay
[8] = Prodrug conversion in pH 7.3 phosphate buffer assessed as ((2S,5R)-5-(5-methyl-2,4-dioxo-3,4-dihydropyrimidin-1(2H)-yl)-2,5-dihydrofuran-2-yl)methyl tri-hydrogen diphosphate formation by measuring half life in presence of pig liver esterase by HPLC analysis; assay type: ADME
[9] = target: T2, DNA polymerase subunit gamma-1 (Homo sapiens) (UniProt P54098); assay: Substrate activity at human DNA polymerase gamma measured after 4 hrs by electrophoresis based primer extension assay
T2 sequence (whole entry): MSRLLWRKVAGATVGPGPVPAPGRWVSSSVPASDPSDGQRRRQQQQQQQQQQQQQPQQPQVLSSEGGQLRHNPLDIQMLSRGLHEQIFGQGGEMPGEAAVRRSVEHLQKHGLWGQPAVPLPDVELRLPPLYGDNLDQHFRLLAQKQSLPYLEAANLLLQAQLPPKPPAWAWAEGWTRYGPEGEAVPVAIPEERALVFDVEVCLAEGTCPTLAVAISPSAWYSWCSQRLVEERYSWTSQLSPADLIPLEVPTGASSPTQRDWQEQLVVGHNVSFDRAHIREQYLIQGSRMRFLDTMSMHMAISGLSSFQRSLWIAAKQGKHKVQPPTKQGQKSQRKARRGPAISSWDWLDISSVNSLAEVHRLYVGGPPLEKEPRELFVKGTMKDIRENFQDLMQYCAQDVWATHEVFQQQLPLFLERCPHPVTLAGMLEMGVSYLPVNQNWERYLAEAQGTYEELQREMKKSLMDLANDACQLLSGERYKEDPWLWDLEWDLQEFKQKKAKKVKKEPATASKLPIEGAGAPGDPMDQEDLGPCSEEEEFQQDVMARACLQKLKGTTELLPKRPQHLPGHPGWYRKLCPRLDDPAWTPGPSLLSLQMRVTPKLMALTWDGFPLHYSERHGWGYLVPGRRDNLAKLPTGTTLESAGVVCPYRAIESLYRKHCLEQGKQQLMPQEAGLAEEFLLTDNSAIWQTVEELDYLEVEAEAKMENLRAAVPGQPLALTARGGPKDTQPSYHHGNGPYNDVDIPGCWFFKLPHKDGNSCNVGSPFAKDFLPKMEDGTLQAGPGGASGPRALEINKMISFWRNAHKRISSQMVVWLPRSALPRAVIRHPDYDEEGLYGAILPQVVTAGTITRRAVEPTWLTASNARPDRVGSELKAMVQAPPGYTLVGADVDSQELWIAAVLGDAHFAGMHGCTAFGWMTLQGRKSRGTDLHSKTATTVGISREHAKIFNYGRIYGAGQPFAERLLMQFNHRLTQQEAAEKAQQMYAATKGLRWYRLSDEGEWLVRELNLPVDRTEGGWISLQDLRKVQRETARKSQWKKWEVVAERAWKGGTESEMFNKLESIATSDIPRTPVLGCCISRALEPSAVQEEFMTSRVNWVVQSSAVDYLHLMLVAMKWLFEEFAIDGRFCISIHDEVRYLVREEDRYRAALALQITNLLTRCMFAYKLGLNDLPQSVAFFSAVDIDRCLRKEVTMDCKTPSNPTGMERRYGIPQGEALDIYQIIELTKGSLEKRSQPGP

[10] = tested on: Human immunodeficiency virus 1; assay: Potency index, ratio of 3'-deoxy-2',3'-dehydrothymidine EC50 to compound EC50 for antiviral activity against HIV-1 HE infected in wild-type human CEM/0 cells; assay type: functional
[11] = Prodrug conversion in human CEM/0 cell extract assessed as metabolite formation by measuring half life by HPLC analysis; assay type: ADME; details: ccrf-cem
[12] = Chemical stability of the compound in phosphate buffer assessed as half life at pH 7.3 by HPLC analysis; assay type: physicochemical
[13] = tested on: Human immunodeficiency virus 2; assay: Potency index, ratio of 3'-deoxy-2',3'-dehydrothymidine EC50 to compound EC50 for antiviral activity against HIV-2 ROD infected in thymidine kinase-deficient human CEM[…] cells; assay type: functional
[14] = tested on: Human immunodeficiency virus 1; assay: Antiviral activity against HIV-1 HE infected in wild-type human CEM/0 cells assessed as inhibition of virus-induced cytopathic effect incubated for 4 to 5 days by light microscopic analysis; assay type: functional, organism-based; details: Human immunodeficiency virus 1, HE, CCRF-CEM
[15] = Retention time of the compound by HPLC analysis; assay type: physicochemical
[16] = Prodrug conversion in pH 7.3 phosphate buffer assessed as ((2S,5R)-5-(5-methyl-2,4-dioxo-3,4-dihydropyrimidin-1(2H)-yl)-2,5-dihydrofuran-2-yl)methyl dihydrogen phosphate formation by measuring half life in presence of pig liver esterase by HPLC analysis; assay type: ADME
[17] = Prodrug conversion in human CEM/0 cell extract assessed as ((2S,5R)-5-(5-methyl-2,4-dioxo-3,4-dihydropyrimidin-1(2H)-yl)-2,5-dihydrofuran-2-yl)methyl dihydrogen phosphate formation by HPLC analysis; assay type: ADME; details: ccrf-cem
[18] = Chemical stability of the compound in phosphate buffer saline assessed as half life at pH 7.3 by HPLC analysis; assay type: physicochemical; details: phosphate buffered saline
[19] = Prodrug conversion in human CEM/0 cell extract assessed as ((2S,5R)-5-(5-methyl-2,4-dioxo-3,4-dihydropyrimidin-1(2H)-yl)-2,5-dihydrofuran-2-yl)methyl tri-hydrogen diphosphate formation by HPLC analysis; assay type: ADME; details: ccrf-cem
[20] = tested on: Human immunodeficiency virus; assay: Substrate activity at HIV reverse transcriptase measured after 4 hrs by electrophoresis based primer extension assay

| SMILES | Activity [20] | Activity [1] | Ratio EC50 [2] | pEC50 [3] | selectivity ratio [4] | CC50 [5] [µM] | pEC50 [6] | Activity [7] | Drug metabolism [8] | Activity [9] | Ratio EC50 [10] | Drug metabolism [11] | half-life [12] [days] | Ratio EC50 [13] | pEC50 [14] | Retention_time [15] [min] | Drug metabolism [17] | half-life [18] [days] | Drug metabolism [19] | t1/2 [11] [h] | further results |
| --- | --- | --- | --- | --- | --- | --- | --- | --- | --- | --- | --- | --- | --- | --- | --- | --- | --- | --- | --- | --- | --- |
| CCCCCCCCCCCCCCCCCCP(=O)(OCC(CC)CCCC)OP(=O)(O)OP(=O)(O)OC[C@@H]1C=C[C@H](n2cc(C)c(=O)[nH]c2=O)O1.N.N (stereo partly specified) | – | inactive | 4 | 6.85 | 175 | 42 | 6.62 | inactive | Metabolite_Notdetected | inactive | 4 | Metabolite_Notdetected | > 41.7 | 10000 | 7.05 | 17.1 | – | – | – | – | – |
| CCCCCCCCCCCCCCCCCCOP(=O)(OCCCCCCCC)OP(=O)(O)OC[C@@H]1C=C[C@H](n2cc(C)c(=O)[nH]c2=O)O1.N (stereo partly specified) | – | inactive | – | 7.35 | 4220 | 46.5 | 7.96 | inactive | – | inactive | – | Metabolite_Notdetected | – | – | 7.15 | 20.8 | Metabolite_Detected | > 41.7 | Metabolite_Notdetected | – | Drug metabolism [16]: Metabolite_Notdetected |
| CCCCCCCCCCCCCCCCCCP(=O)(OCCCCCCCCCCCC)OP(=O)(O)OP(=O)(O)OC[C@@H]1C=C[C@H](n2cc(C)c(=O)[nH]c2=O)O1.N.N (stereo partly specified) | – | inactive | 4 | 6.68 | 143 | 50 | 6.46 | inactive | Metabolite_Notdetected | inactive | 4 | Metabolite_Notdetected | 34.6 | 10000 | 6.89 | 18.9 | – | – | – | – | – |
| CCCCCCCCCCCCCCCCCCP(=O)(OCCCC)OP(=O)(O)OC[C@@H]1C=C[C@H](n2cc(C)c(=O)[nH]c2=O)O1.N (stereo partly specified) | Active | inactive | – | 7.80 | 20300 | 42.6 | 8.70 | inactive | – | inactive | – | – | – | – | 7.51 | 18.5 | Metabolite_Detected | > 125 | Metabolite_Notdetected | > 40 | t1/2 [16]: > 150 h |

Now from value to molecule, other results behind:

| Activity [20] | SMILES | Activity [1] | Ratio EC50 [2] | pEC50 [3] | selectivity ratio [4] | CC50 [5] [µM] | pEC50 [6] | Activity [7] | Drug metabolism [8] | Activity [9] | Ratio EC50 [10] | Drug metabolism [11] | half-life [12] [days] | Ratio EC50 [13] | pEC50 [14] | Retention_time [15] [min] | Drug metabolism [17] | half-life [18] [days] | Drug metabolism [19] | t1/2 [11] [h] | further results |
| --- | --- | --- | --- | --- | --- | --- | --- | --- | --- | --- | --- | --- | --- | --- | --- | --- | --- | --- | --- | --- | --- |
| Active | CCCCCCCCCCCCCCCCCCOP(=O)(OCC(CC)CCCC)OP(=O)(O)OP(=O)(O)OC[C@@H]1C=C[C@H](n2cc(C)c(=O)[nH]c2=O)O1.N.N (stereo partly specified) | inactive | 4 | 7.44 | 6800 | 34 | 8.30 | inactive | Metabolite_Notdetected | inactive | 4 | Metabolite_Notdetected | > 83.3 | 10000 | 7.12 | 17.3 | – | – | – | – | – |
| Active | CCCCCCCCCCCCCCCCCCOP(=O)(OC)OP(=O)(O)OP(=O)(O)OC[C@@H]1C=C[C@H](n2cc(C)c(=O)[nH]c2=O)O1.N.N (stereo partly specified) | inactive | 4 | 7.60 | 2270 | 34 | 7.82 | inactive | – | inactive | 4 | – | 32.9 | 10000 | 7.11 | 15.6 | – | – | – | > 15 | t1/2 [8]: > 150 h |
